Assay results from ChEMBL document CHEMBL1201862, “PubChem BioAssay data set” (2004).
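Results reflect a 48-hour exposure of cells in 96-well plates to compound at five concentrations. At the GI50, growth is halved.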 The source made the active and inactive calls. No stated cut-off is given here; in the data, active = GI50 up to about 1.1 µM and inactive = higher.

What was measured:
Experiment in all cases: NCI tumour cell line growth inhibition, 48 h
786-0 = tested on: 786-0
CCRF-CEM = tested on: CCRF-CEM
EKVX = tested on: EKVX
HCC 2998 = tested on: HCC 2998
HOP-62 = tested on: HOP-62
HOP-92 = tested on: HOP-92
IGROV-1 = tested on: IGROV-1
OVCAR-5 = tested on: OVCAR-5
PC-3 = tested on: PC-3
SF-295 = tested on: SF-295
SF-539 = tested on: SF-539
SK-MEL-5 = tested on: SK-MEL-5
SK-OV-3 = tested on: SK-OV-3
SN12C = tested on: SN12C
SW-620 = tested on: SW-620
TK-10 = tested on: TK-10
U-251 = tested on: U-251
UACC-257 = tested on: UACC-257
UACC-62 = tested on: UACC-62
UO-31 = tested on: UO-31

Measured: GI50

CCOP1(=O)C=C(Sc2ccc([N+](=O)[O-])cc2[N+](=O)[O-])C(C)(C)O1 (stereo not given)
inactive: 786-0 8.81 µM | CCRF-CEM 2.42 µM | EKVX 14.4 µM | HCC 2998 18.6 µM | HOP-62 27.9 µM | HOP-92 7.26 µM | IGROV-1 16.5 µM | OVCAR-5 21.2 µM | PC-3 11.9 µM | SF-295 17.9 µM | SF-539 11.7 µM | SK-MEL-5 9.86 µM | SK-OV-3 27.2 µM | SN12C 10.3 µM | SW-620 11.6 µM | TK-10 17.1 µM | U-251 14.9 µM | UACC-257 12.3 µM | UACC-62 11.5 µM | UO-31 14.9 µM

COC(=O)c1sc2nc(Nc3ccccc3)/c(=N\c3ccccc3)sc2c1C
inactive: 786-0 34.8 µM | CCRF-CEM > 100 µM | EKVX 59.6 µM | HCC 2998 > 100 µM | HOP-62 49.8 µM | HOP-92 31.3 µM | IGROV-1 45.4 µM | OVCAR-5 > 100 µM | PC-3 > 100 µM | SF-295 51.4 µM | SF-539 51.9 µM | SK-MEL-5 88.5 µM | SK-OV-3 32.8 µM | SN12C 92.9 µM | SW-620 > 100 µM | TK-10 30.5 µM | U-251 48.6 µM | UACC-257 > 100 µM | UACC-62 35.6 µM | UO-31 > 100 µM

COc1ccc2[nH]c3c(C)c4ccnc(NCCCN(C)CCCN)c4c(C)c3c2c1
active: 786-0 0.0596 µM | CCRF-CEM 0.0726 µM | EKVX 0.225 µM | HCC 2998 0.159 µM | HOP-62 0.109 µM | HOP-92 0.13 µM | IGROV-1 0.165 µM | OVCAR-5 0.176 µM | PC-3 0.259 µM | SF-295 0.214 µM | SF-539 0.118 µM | SK-MEL-5 0.178 µM | SK-OV-3 0.838 µM | SN12C 0.0274 µM | SW-620 0.102 µM | TK-10 0.166 µM | U-251 0.0803 µM | UACC-257 0.979 µM | UACC-62 0.22 µM | UO-31 0.207 µM

CCOP(=O)(OCC)/C(F)=C/c1ccc(F)cc1
inactive: 786-0 > 100 µM | CCRF-CEM > 100 µM | EKVX > 100 µM | HCC 2998 > 10 µM | HOP-62 > 100 µM | HOP-92 > 100 µM | IGROV-1 > 100 µM | OVCAR-5 > 100 µM | PC-3 > 100 µM | SF-295 > 100 µM | SF-539 > 100 µM | SK-MEL-5 > 100 µM | SK-OV-3 > 100 µM | SN12C > 100 µM | SW-620 > 100 µM | TK-10 > 100 µM | U-251 > 100 µM | UACC-257 > 100 µM | UACC-62 91.2 µM | UO-31 > 100 µM

O=C(N/N=C\c1ccc(Cl)cc1)Nc1ccc2ccccc2c1
inactive: 786-0 19.3 µM | CCRF-CEM > 100 µM | EKVX 64.9 µM | HCC 2998 67.5 µM | HOP-62 21.9 µM | HOP-92 29.6 µM | IGROV-1 61.5 µM | OVCAR-5 71.6 µM | PC-3 30.3 µM | SF-295 > 10 µM | SF-539 27.8 µM | SK-MEL-5 > 100 µM | SK-OV-3 94.6 µM | SN12C 40.6 µM | SW-620 46.2 µM | TK-10 55.5 µM | U-251 23.9 µM | UACC-257 95.5 µM | UACC-62 34.5 µM | UO-31 53.7 µM

O=C(c1ccccc1)c1ccc2nc3n(c2c1)C(c1c(F)cccc1F)SC3 (stereo not given)
inactive: 786-0 4.2 µM | CCRF-CEM 4.76 µM | EKVX 3.56 µM | HCC 2998 5.25 µM | HOP-62 8.81 µM | HOP-92 10.9 µM | IGROV-1 5.05 µM | OVCAR-5 5.74 µM | PC-3 6.89 µM | SF-295 3.2 µM | SF-539 10.3 µM | SK-MEL-5 4.08 µM | SK-OV-3 4.1 µM | SN12C 7.69 µM | SW-620 3.18 µM | TK-10 22.9 µM | U-251 6.67 µM | UACC-257 18.1 µM | UACC-62 4.47 µM | UO-31 5.4 µM

C/C(=N\NC(=S)NCc1ccccc1)c1nc2cccnc2[nH]1
inactive: 786-0 6.92 µM | CCRF-CEM 3.27 µM | EKVX 2.88 µM | HCC 2998 20.1 µM | HOP-62 6.85 µM | HOP-92 4.37 µM | IGROV-1 8 µM | OVCAR-5 7.23 µM | PC-3 8.95 µM | SF-295 6.41 µM | SF-539 5.73 µM | SK-MEL-5 3.57 µM | SK-OV-3 10.4 µM | SN12C 15.7 µM | SW-620 9.66 µM | TK-10 15.2 µM | U-251 5.3 µM | UACC-257 9.62 µM | UACC-62 6.53 µM | UO-31 1.94 µM

CC1C(c2ccccc2)OP(=O)(OC(C#N)c2ccccc2)N1C (stereo not given)
inactive: 786-0 > 100 µM | CCRF-CEM 29.2 µM | EKVX > 100 µM | HCC 2998 48.4 µM | HOP-62 > 100 µM | HOP-92 89.9 µM | IGROV-1 > 100 µM | OVCAR-5 > 100 µM | PC-3 > 100 µM | SF-295 > 100 µM | SF-539 > 100 µM | SK-MEL-5 > 100 µM | SK-OV-3 > 100 µM | SN12C > 100 µM | SW-620 97.9 µM | TK-10 > 100 µM | U-251 67.9 µM | UACC-257 68.9 µM | UACC-62 > 100 µM | UO-31 97.3 µM

CC1(C)C=Cc2c(cc(O)c3c(=O)c4cc(Cl)ccc4[nH]c23)O1
active: EKVX 0.469 µM
inactive: 786-0 3.84 µM | CCRF-CEM 3.08 µM | HCC 2998 3.62 µM | HOP-62 4.08 µM | HOP-92 2.52 µM | IGROV-1 5.31 µM | OVCAR-5 1.91 µM | PC-3 2.04 µM | SF-295 2.84 µM | SF-539 4.13 µM | SK-MEL-5 1.92 µM | SK-OV-3 2.72 µM | SN12C 3.24 µM | SW-620 3.55 µM | TK-10 4.5 µM | U-251 2.74 µM | UACC-257 2.87 µM | UACC-62 2.58 µM | UO-31 2.16 µM

O=c1c2cccnc2n2n1Cc1ccccc1C2
inactive: 786-0 > 100 µM | CCRF-CEM > 100 µM | EKVX 71.3 µM | HCC 2998 > 100 µM | HOP-62 > 100 µM | HOP-92 > 100 µM | IGROV-1 > 100 µM | OVCAR-5 > 100 µM | PC-3 > 100 µM | SF-295 > 100 µM | SF-539 > 100 µM | SK-MEL-5 > 100 µM | SK-OV-3 > 100 µM | SN12C > 100 µM | SW-620 > 100 µM | TK-10 > 100 µM | U-251 > 100 µM | UACC-257 > 100 µM | UACC-62 > 100 µM | UO-31 > 100 µM

CC(=O)/C(C)=N/NC(=O)c1ccccc1O
inactive: 786-0 > 10 µM | CCRF-CEM 23 µM | EKVX > 10 µM | HCC 2998 > 10 µM | HOP-62 > 10 µM | HOP-92 > 10 µM | IGROV-1 75 µM | OVCAR-5 > 10 µM | PC-3 > 100 µM | SF-295 > 10 µM | SF-539 > 10 µM | SK-MEL-5 95.1 µM | SK-OV-3 > 10 µM | SN12C > 10 µM | SW-620 > 10 µM | TK-10 > 10 µM | U-251 > 10 µM | UACC-257 > 10 µM | UACC-62 39.7 µM | UO-31 > 10 µM

N#CC(NC12CC3CC(CC(C3)C1)C2)c1ccccc1 (stereo not given)
inactive: 786-0 > 100 µM | CCRF-CEM 20.8 µM | EKVX > 100 µM | HCC 2998 > 100 µM | HOP-62 > 100 µM | HOP-92 94.2 µM | IGROV-1 > 100 µM | OVCAR-5 > 100 µM | PC-3 > 100 µM | SF-295 > 100 µM | SF-539 > 100 µM | SK-MEL-5 > 100 µM | SK-OV-3 > 100 µM | SN12C > 100 µM | SW-620 > 100 µM | TK-10 > 100 µM | U-251 > 100 µM | UACC-257 > 100 µM | UACC-62 > 100 µM | UO-31 > 100 µM

Nc1ccn(C=C=CCO)c(=O)n1
inactive: 786-0 > 100 µM | CCRF-CEM 7.43 µM | EKVX > 100 µM | HCC 2998 > 78.5 µM | HOP-62 > 100 µM | HOP-92 > 66.4 µM | IGROV-1 > 100 µM | OVCAR-5 > 100 µM | PC-3 > 100 µM | SF-295 > 100 µM | SF-539 > 100 µM | SK-MEL-5 > 100 µM | SK-OV-3 > 100 µM | SN12C > 100 µM | SW-620 > 100 µM | TK-10 > 100 µM | U-251 > 100 µM | UACC-257 > 100 µM | UACC-62 > 100 µM | UO-31 > 100 µM

O=C1c2ccc3c4ccc5c6c(ccc(c7ccc(c2c37)C(=O)N1CCN1CCCCC1)c64)C(=O)N(CCN1CCCCC1)C5=O
inactive: 786-0 > 100 µM | CCRF-CEM > 100 µM | EKVX > 100 µM | HCC 2998 > 100 µM | HOP-62 > 100 µM | HOP-92 > 100 µM | IGROV-1 > 100 µM | OVCAR-5 > 100 µM | PC-3 > 100 µM | SF-295 > 100 µM | SF-539 > 100 µM | SK-MEL-5 > 100 µM | SK-OV-3 > 100 µM | SN12C > 100 µM | SW-620 > 100 µM | TK-10 > 100 µM | U-251 > 100 µM | UACC-257 > 100 µM | UACC-62 > 100 µM | UO-31 > 100 µM
